Laboratory results as given in US10143727B2, “Method using an Y1 receptor activator for treating an anticancer agent-induced nephrotoxic injury” (KYUNGPOOK NATIONAL UNIVERSITY INDUSTRY-ACADEMIC COOPERATION …, priority 2016, dated 2018).

Assays:
[1] = test system: cisplatin-induced renal injury; assay: Histology (H&E staining) and morphological assessment of renal tissues; type: in vivo, C57BL/6 mice
Procedure: (§1) Six- to eight-weeks old male or female C57BL/6 mice were purchased from the Jackson laboratory. A block randomization method was used to divide these animals into experimental groups. In order to eliminate bias, investigators were blinded during data collection and analysis. The mice were housed under a 12 hour day-night cycle. They were provided with free access to water and food pellets. This animal study was approved by the Kyungpook National University Institutional Animal Care and Use Committee.
(§2) Three days later, kidneys were collected and analyzed.
(§3) Formaldehyde-fixed kidneys were dehydrated using graded alcohol series and paraffinized. Paraffin sections of 5 μm were stained with hematoxylin and eosin (H&E). Each parameter was determined for at least 6 different animals. TUNEL assays were performed using In Situ Cell Detection Kit, Fluorescein (Roche Diagnostic) according to the manufacturer's instructions. A pathologist quantified kidney damage in a double blinded manner using renal damage score, as previously described (See Jiang M et al., Am J Physiol Renal Physiol 287, F1140-1147, 2004). Briefly, tissues were stained with H&E. The degree of morphological involvement in renal dysfunction was determined using light microscopy.
Each parameter was determined for at least five different animals.

[2] = test system: cisplatin-induced renal injury; assay: Creatinine and BUN assays in cisplatin-induced renal injury; type: in vivo, C57BL/6 mice; conditions: cisplatin 15 mg per kg mice; test peptide 50 ug per kg i.p. daily for 3 days; vs cisplatin-treated mice
Procedure: as §1, §2
To monitor renal function, plasma levels of BUN and creatinine were determined using commercially available kits as described previously (See Pabla N et al., J Clin Invest 121, 2709-2722, 2011).

[3] = test system: cisplatin-induced apoptosis in the kidney; assay: TUNEL assay of renal apoptosis; type: in vivo, C57BL/6 mice; conditions: cisplatin 15 mg per kg mice; 50 ug per kg i.p. daily for 3 days
Procedure: as §1, §2, §3

[4] = test system: p53-dependent apoptosis pathway; type: in vivo; conditions: renal tissues of cisplatin-treated mice; 50 ug per kg i.p. daily for 3 days
Procedure: as §1, §2
Samples were immunoblotted as previously described (See Santos-Carvalho A et al., Cell Death Dis 4, e636, 2013). Primary antibodies against the following proteins were used: P53(mouse, 1: 1000, Cell Signaling Technologies, 2524), Bax (rabbit, 1: 1000, Cell Signaling Technologies, 2772), Bcl2 (rabbit, 1: 1000, Cell Signaling Technologies, 5114S), and β-actin (1: 1000, Santa Cruz, SC-1615). Densitometric quantification was performed using Image J software (US National Institutes of Health).
Real time RT-PCR was performed as previously described (See Hu L et al., BMB Rep 48, 583-588, 2015). […] Quantitative real-time PCR was performed using Corbett research RG-6000 real-time PCR instrument. […]

| Molecule | Apoptotic tubular cells in the renal cortex (H&E) ([1]; cisplatin 15 mg per kg alone) | Plasma concentration of blood urea nitrogen (BUN) [2] | Plasma concentration of creatinine [2] | Apoptotic cells in the kidney (TUNEL assay) [3] | Expression levels of p53 and pro-apoptotic genes such as Bax, Noxa, and Puma [4] | Cisplatin-induced increase in apoptotic tubular cells in the renal cortex (H&E) ([1]; cisplatin 15 mg per kg mice, 50 ug per kg i.p. daily for 3 days) | Renal injury (H&E, tubular damage) ([1]; cisplatin 15 mg per kg mice, 50 ug per kg i.p. daily for 3 days, FIG. 3d) |
| --- | --- | --- | --- | --- | --- | --- | --- |
| N.N.[Cl][Pt][Cl] [cisplatin, Cisplatin, reference compound] | increase |  |  |  |  |  |  |
| Neuropeptide Y [Neuropeptide Y (NPY)] |  | decreased | decreased | decrease | decreased | diminished |  |
| [Leu31Pro34]NPY [Y1 agonist] |  | reduced | reduced | decreased | suppressed |  | significantly reduced |
